Test results from ChEMBL document CHEMBL3875180, “8-Thioalkyl-adenosine derivatives inhibit Listeria monocytogenes NAD kinase through a novel binding mode” (Eur J Med Chem, 2016).

How the values were obtained:
[1] = Cytotoxicity against human MRC5 cells up to 1 x 10^-4M; assay type: toxicity, cell-based
[2] = Competitive inhibition of Listeria monocytogenes C-terminal His6-tagged NADK1 expressed in Escherichia coli BL21(DE3) assessed as reduction in NADP production using varying levels of NAD as substrate by glucose-6-phosphate dehydrogenase coupled enzyme based spectrophotometric method
[3] = target: T1, NAD kinase (Homo sapiens, UniProt O95544); assay: Inhibition of human NADK expressed in Escherichia coli BL21(DE3) assessed as reduction in NADP production using NAD as substrate by glucose-6-phosphate dehydrogenase coupled enzyme based spectrophotometric method
T1 sequence (O95544 whole entry): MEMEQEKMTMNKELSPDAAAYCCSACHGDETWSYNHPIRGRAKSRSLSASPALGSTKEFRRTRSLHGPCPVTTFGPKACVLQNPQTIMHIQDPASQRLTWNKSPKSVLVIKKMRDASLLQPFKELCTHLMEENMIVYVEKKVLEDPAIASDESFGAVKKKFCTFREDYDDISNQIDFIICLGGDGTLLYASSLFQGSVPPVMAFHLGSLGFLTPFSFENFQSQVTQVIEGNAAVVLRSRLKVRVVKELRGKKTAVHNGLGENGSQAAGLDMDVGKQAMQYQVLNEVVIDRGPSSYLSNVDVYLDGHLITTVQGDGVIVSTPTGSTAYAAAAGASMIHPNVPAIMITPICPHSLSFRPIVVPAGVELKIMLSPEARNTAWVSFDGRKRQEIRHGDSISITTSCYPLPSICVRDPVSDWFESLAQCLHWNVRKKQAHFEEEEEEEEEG

Structure (SMILES) | Ki [3] | Activity [1] | Ki [2]
Cn1cc(CCNC(=O)CSc2nc3c(N)ncnc3n2[C@@H]2O[C@H](CN=[N+]=[N-])[C@@H](O)[C@H]2O)c2ccccc21 | 350 µM | Non-Toxic | 0.4 µM
[N-]=[N+]=NC[C@H]1O[C@@H](n2c(SCC(=O)NCCc3cccc(Cl)c3)nc3c(N)ncnc32)[C@H](O)[C@@H]1O | – | Non-Toxic | 0.75 µM
[N-]=[N+]=NC[C@H]1O[C@@H](n2c(SCC(=O)NCCc3nc4ccccc4[nH]3)nc3c(N)ncnc32)[C@H](O)[C@@H]1O | 525 µM | Non-Toxic | 23 µM
[N-]=[N+]=NC[C@H]1O[C@@H](n2c(SCC(=O)NCCc3ccc(Br)cc3)nc3c(N)ncnc32)[C@H](O)[C@@H]1O | – | Non-Toxic | 0.5 µM
COc1ccc2[nH]cc(CCNC(=O)CSc3nc4c(N)ncnc4n3[C@@H]3O[C@H](CN=[N+]=[N-])[C@@H](O)[C@H]3O)c2c1 | 160 µM | Non-Toxic | 5 µM
Nc1ncnc2c1nc(SCC(=O)NCCc1ccc(C(F)(F)F)cc1)n2[C@@H]1O[C@H](CO)[C@@H](O)[C@H]1O | – | Non-Toxic | 10 µM
[N-]=[N+]=NC[C@H]1O[C@@H](n2c(SCC(=O)NCCc3c[nH]c4ccc(Cl)cc34)nc3c(N)ncnc32)[C@H](O)[C@@H]1O | – | Non-Toxic | 0.3 µM
COc1ccc2[nH]cc(CCNC(=O)CSc3nc4c(N)ncnc4n3[C@@H]3O[C@H](CO)[C@@H](O)[C@H]3O)c2c1 | – | Non-Toxic | 40 µM
[N-]=[N+]=NC[C@H]1O[C@@H](n2c(SCC(=O)NCCc3c[nH]c4ccccc34)nc3c(N)ncnc32)[C@H](O)[C@@H]1O | 140 µM | Non-Toxic | 0.5 µM

More lines, main results first:

Ki [3] | Structure (SMILES) | Activity [1] | Ki [2]
210 µM | [N-]=[N+]=NC[C@H]1O[C@@H](n2c(SCC(=O)NCCc3ccc(Cl)cc3)nc3c(N)ncnc32)[C@H](O)[C@@H]1O | Non-Toxic | 0.5 µM
130 µM | NC[C@H]1O[C@@H](n2c(SCC(=O)NCCc3ccc(Cl)c(Cl)c3)nc3c(N)ncnc32)[C@H](O)[C@@H]1O | Non-Toxic | 2 µM
230 µM | [N-]=[N+]=NC[C@H]1O[C@@H](n2c(SCC(=O)NCCc3ccc(C(F)(F)F)cc3)nc3c(N)ncnc32)[C@H](O)[C@@H]1O | Non-Toxic | 7.5 µM
130 µM | NC[C@H]1O[C@@H](n2c(SCC(=O)NCCc3ccc(Br)cc3)nc3c(N)ncnc32)[C@H](O)[C@@H]1O | Non-Toxic | 55 µM
140 µM | [N-]=[N+]=NC[C@H]1O[C@@H](n2c(SCC(=O)NCCc3ccc4ccccc4c3)nc3c(N)ncnc32)[C@H](O)[C@@H]1O | Non-Toxic | 5 µM
300 µM | [N-]=[N+]=NC[C@H]1O[C@@H](n2c(SCC(=O)NCCc3cccc(C(F)(F)F)c3)nc3c(N)ncnc32)[C@H](O)[C@@H]1O | Non-Toxic | 6.5 µM
250 µM | Nc1ncnc2c1nc(SCC(=O)NCCc1ccc(Br)cc1)n2[C@@H]1O[C@H](CO)[C@@H](O)[C@H]1O | Non-Toxic | 30 µM
160 µM | CN(C)S(=O)(=O)NC[C@H]1O[C@@H](n2c(SCC(=O)NCCc3ccc(Cl)c(Cl)c3)nc3c(N)ncnc32)[C@H](O)[C@@H]1O | Non-Toxic | 3.5 µM
200 µM | Nc1ncnc2c1nc(SCC(=O)NCCc1cccc(Cl)c1)n2[C@@H]1O[C@H](CO)[C@@H](O)[C@H]1O | Non-Toxic | 30 µM
140 µM | [N-]=[N+]=NC[C@H]1O[C@@H](n2c(SCC(=O)NCCc3ccc(Cl)c(Cl)c3)nc3c(N)ncnc32)[C@H](O)[C@@H]1O | Non-Toxic | 0.1 µM
180 µM | C[C@H]1O[C@@H](n2c(SCC(=O)NCCc3ccc(Cl)c(Cl)c3)nc3c(N)ncnc32)[C@H](O)[C@@H]1O | Non-Toxic | 1.5 µM
